The record followed here is patent publication US20140213576A1, “NOVEL COMPOUND USEFUL FOR THE TREATMENT OF DEGENERATIVE AND INFLAMMATORY DISEASES” (GALAPAGOS NV, priority 2013, published 2014).

For one experiment, the system named is HeLa cells. In words: JAK-STAT signalling assay (OSM-triggered pSTAT1(2)-luciferase reporter). It counts as cell-based. The conditions noted are these: human OSM 33 ng/mL, STAT1 luciferase reporter, individual determinations. How it is done: HeLa cells were maintained in Dulbecco's Modified Eagle's Medium (DMEM) containing 10% heat inactivated fetal calf serum, 100 U/mL penicillin and 100 μg/mL streptomycin. HeLa cells were used at 70% confluence for transfection. 20,000 cells in 87 μL cell culture medium were transiently transfected with 40 ng pSTAT1(2)-luciferase reporter (Panomics), 8 ng of LacZ reporter as internal control reporter and 52 ng of pBSK using 0.32 μL Jet-PEI (Polyplus) as transfection reagent per well in 96-well plate format. After overnight incubation at 37° C., 5% CO2, transfection medium was removed. 81 μL of DMEM+1.5% heat inactivated fetal calf serum was added. […]
40 μL of cell lysate was used to read β-galactosidase activity by adding 180 μL β-Gal solution (30 μL ONPG 4 mg/mL+150 μL β-Galactosidase buffer (0.06 M Na2HPO4, 0.04 M NaH2PO4, 1 mM MgCl2)) for 20 min. The reaction was stopped by addition of 50 μL Na2CO3 1 M. Absorbance was read at 405 nm.
Luciferase activity was measured using 40 μL cell lysate plus 40 μL of Steadylite® as described by the manufacturer (Perkin Elmer), on the Envision (Perkin Elmer). […]
Percentage inhibition=((fluorescence determined in the presence of vehicle−fluorescence determined for sample with test compound present) divided by (fluorescence determined in the presence of vehicle−fluorescence determined for sample without trigger))[…]. […]
(In general: Reporter assays use an easily measured gene product as a stand-in for the process of interest.)

The subject of experiment [1] is IL-6-induced STAT1 phosphorylation. In words: Whole blood assay, IL-6 stimulation, phospho-STAT1 by FACS. It counts as cell-based. Particulars: human whole blood, CD4+ cells, 9 different donors. How it is done: In addition, a flow cytometry analysis was performed to establish JAK1 over JAK2 compound selectivity ex vivo using human whole blood. Therefore, blood was taken from human volunteers who gave informed consent. Blood was then equilibrated for 30 min at 37° C. under gentle rocking, then aliquoted in Eppendorf tubes. Compound was added at different concentrations and incubated at 37° C. for 30 min under gentle rocking and subsequently stimulated for 20 min at 37° C. under gentle rocking with interleukin 6 (IL-6) for JAK1-dependent pathway stimulation or GM-CSF for JAK2-dependent pathway stimulation. Phospho-STAT1 and phospho-STAT5 were then evaluated using FACS analysis.
For IL-6-stimulated increase of Signal Transducers and Activators of Transcription 1 (pSTAT1) phosphorylation in white blood cell, human whole blood, drawn from human volunteers who gave informed consent, was ex vivo treated with the compound for 30 min and subsequently stimulated for 20 min with IL-6. The increase in phosphorylation of STAT1 by IL-6 in lymphocytes was measured using anti phospho-STAT1 antibody by FACS. […]
Cells are then washed once with 1×PBS and analyzed on a FACSCanto II flow cytometer (BD Biosciences).
50,000 total events were counted and Phospho-STAT1 positive cells were measured after gating on CD4+ cells, in the lymphocyte gate. […]

The next experiment concerns the target T1, TYK2 (Homo sapiens, UniProt P29597).
T1 construct: purchased Carna Biosciences 09CBS-0983D
In words: TYK2 Ki determination assay (kinase tracer 236 binding). The conditions noted are these: binding experiment, 50 nM kinase tracer 236; read-out: Ki against TYK2. As for the experimental part: TYK2 (Carna Biosciences, 09CBS-0983D) was used at a final concentration of 5 nM. The binding experiment was performed in 50 mM Hepes pH 7.5, 0.01% Brij-35, 10 mM MgCl2, 1 mM EGTA using 50 nM kinase tracer 236 (Invitrogen, PV5592) and 2 nM Eu-anti-GST (Invitrogen, PV5594) with varying compound concentrations. Detection of tracer was performed according to the manufacturers’ procedure.

Structures are written as SMILES.

T1 sequence (P29597 whole entry): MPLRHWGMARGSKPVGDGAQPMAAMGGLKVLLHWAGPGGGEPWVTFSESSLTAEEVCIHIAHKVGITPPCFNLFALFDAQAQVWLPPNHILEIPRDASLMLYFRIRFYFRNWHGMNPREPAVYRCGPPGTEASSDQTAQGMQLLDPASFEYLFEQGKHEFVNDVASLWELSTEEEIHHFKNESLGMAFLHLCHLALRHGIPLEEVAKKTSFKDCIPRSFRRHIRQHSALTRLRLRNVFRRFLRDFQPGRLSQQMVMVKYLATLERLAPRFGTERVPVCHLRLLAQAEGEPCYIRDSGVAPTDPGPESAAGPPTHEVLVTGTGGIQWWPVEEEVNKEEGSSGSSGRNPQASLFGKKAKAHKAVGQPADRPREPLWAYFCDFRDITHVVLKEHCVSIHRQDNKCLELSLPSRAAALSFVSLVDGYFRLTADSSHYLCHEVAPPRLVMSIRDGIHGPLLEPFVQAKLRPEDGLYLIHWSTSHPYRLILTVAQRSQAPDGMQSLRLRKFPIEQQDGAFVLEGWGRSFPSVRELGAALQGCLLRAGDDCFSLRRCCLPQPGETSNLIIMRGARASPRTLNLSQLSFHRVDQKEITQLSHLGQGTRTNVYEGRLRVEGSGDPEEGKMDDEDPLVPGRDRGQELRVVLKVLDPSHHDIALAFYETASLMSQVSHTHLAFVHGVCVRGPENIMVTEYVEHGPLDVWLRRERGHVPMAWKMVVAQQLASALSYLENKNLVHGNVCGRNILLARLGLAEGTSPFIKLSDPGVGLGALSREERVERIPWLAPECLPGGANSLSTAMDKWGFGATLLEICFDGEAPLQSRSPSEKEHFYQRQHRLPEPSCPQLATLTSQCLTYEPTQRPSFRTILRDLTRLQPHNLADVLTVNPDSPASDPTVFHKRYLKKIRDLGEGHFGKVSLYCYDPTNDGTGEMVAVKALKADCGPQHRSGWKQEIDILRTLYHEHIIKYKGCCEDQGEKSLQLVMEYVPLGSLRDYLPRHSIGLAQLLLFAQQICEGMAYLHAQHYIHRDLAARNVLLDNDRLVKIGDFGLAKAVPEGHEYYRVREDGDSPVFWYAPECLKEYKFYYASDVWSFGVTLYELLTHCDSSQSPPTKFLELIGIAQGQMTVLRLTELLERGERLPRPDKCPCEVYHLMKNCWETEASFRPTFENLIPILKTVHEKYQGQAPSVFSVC

Regarding `CCc1cc(C2CN(S(C)(=O)=O)C2)ncc1N(C)c1cc2c(cn1)ncn2C` [Compound 1, [4-Ethyl-6-(1-methanesulfonyl-azetidin-3-yl)-pyridin-3-yl]-methyl-(1-methyl-1H-imidazo[4,5-d]pyridin-6-yl)-amine], the IC50 in the experiment with HeLa cells (Homo sapiens, HeLa) was found to be 1.65 µM; in the experiment with HeLa cells (listed as compound of the invention) it was 1.66 µM; in experiment [1] it was 0.498 µM. Also, the Ki at TYK2 was determined as 0.336 µM.

In general, IC50 refers to the concentration that gives 50% inhibition. High values mean weaker potency, low ones greater potency. In general, Ki refers to the equilibrium dissociation constant of an inhibitor or competing ligand from its target.
